Measurements: patent US10752632B2, “6-fluoro 2-methylbenzo[d]thiazol-5-yl compounds” (Eli Lilly and Company, priority 2018, dated 2020)

target: full-length human O-GlcNAc-β-N-acetylglucosaminidase (OGA) (Homo sapiens (Human), UniProt O60502); experiment: In Vitro Human OGA Enzyme Assay; assay type: biochemical; conditions: His-OGA enzyme, FD-GlcNAc substrate 6.7 μM, 30 min pre-incubation, 60 min at room temperature, pH 7
Method: In Vitro Human OGA Enzyme Assay
The nucleotide sequence encoding full-length human O-GlcNAc-β-N-acetylglucosaminidase (NM_012215) is inserted into pFastBac1 (Invitrogen) vector with an N-terminal poly-histidine (HIS) tag. Baculovirus generation is carried out according to the Bac-to-Bac Baculovirus Expression system (Invitrogen) protocol. Sf9 cells are infected at 1.5×10^6 cells/mL using 10 mL of P1 virus per Liter of culture and incubated at 28° C. for 48 hrs. Cells are spun down, rinsed with PBS and the pellets stored at −80° C. The above OGA protein (His-OGA) is purified as follows: 4 L of cells are lysed in 200 mL of buffer containing 50 mM Tris, pH 8.0, 300 mM NaCl, 10% glycerol, 10 mM imidazole, 1 mM dithiothreitol (DTT), 0.1% Triton™ X-100, 4 tablets of protease inhibitors (complete EDTA-Free, Roche) for 45 min at 4° C. This cell lysate is then spun for 40 min at 16500 rpm at 4° C., and supernatant incubated with 6 mL of Ni-NTA resin (nickel-nitrilotriacetic acid) for 2 h at 4° C.
Resin is then packed onto column and washed with 50 mM Tris, pH 8.0, 300 mM NaCl, 10% glycerol, 10 mM imidazole, 0.1% Triton™ X-100, 1 mM DTT, followed by 50 mM Tris, pH 8.0, 150 mM NaCl, 10 mM imidazole, 10% glycerol, 1 mM DTT. The proteins are eluted with 50 mM Tris, pH 8.0, 150 mM NaCl, 300 mM imidazole, 10% glycerol, 1 mM DTT. Pooled His-OGA containing fractions are concentrated to 6 ml and loaded onto Superdex75 (16/60). The protein is eluted with 50 mM Tris, pH 8.0, 150 mM NaCl, 10% glycerol, 2 mM DTT. Fractions containing His-OGA are pooled and protein concentration measured with BCA ([…]).
The OGA enzyme catalyses the removal of O-GlcNAc from nucleocytoplasmic proteins. To measure this activity Fluorescein di-N-acetyl-β-N-acetyl-D-glucosaminide (FD-GlcNAc, Kim, Eun Ju; Kang, Dae Ook; Love, Dona C.; Hanover, John A. Carbohydrate Research (2006), 341(8), 971-982) is used as a substrate at a final concentration of 6.7 μM. This fluorogenic substrate becomes fluorescent upon cleavage by OGA, so that the enzyme activity can be measured by the increase in fluorescence detected at 535 nm (excitation at 485 nm).
The assay buffer is prepared to give a final concentration of 50 mM […], 0.01% bovine serum albumin and 0.01% Triton™ X-100 in water, at pH 7. Compounds to be tested are diluted in pure dimethyl sulfoxide (DMSO) using ten point concentration response curves. Maximal compound concentration in the reaction mixture is 30 or 1 μM. Compounds at the appropriate concentration are pre-incubated with OGA enzyme for 30 minutes before the reaction is started by the addition of substrate. The final enzyme concentration is 3.24 nM or 0.5 nM, for the 30 or 1 μM maximal compound concentration, respectively. Reactions are allowed to proceed for 60 min at room temperature. Then, without stopping the reaction, fluorescence is read. IC50 values are calculated by plotting the normalized data vs. log of the compound and fitting the data using a four parameter logistic equation.
The compounds of Examples 1 through 6 were tested essentially as described above.

full-length human O-GlcNAc-β-N-acetylglucosaminidase (OGA), sequence (O60502 whole entry): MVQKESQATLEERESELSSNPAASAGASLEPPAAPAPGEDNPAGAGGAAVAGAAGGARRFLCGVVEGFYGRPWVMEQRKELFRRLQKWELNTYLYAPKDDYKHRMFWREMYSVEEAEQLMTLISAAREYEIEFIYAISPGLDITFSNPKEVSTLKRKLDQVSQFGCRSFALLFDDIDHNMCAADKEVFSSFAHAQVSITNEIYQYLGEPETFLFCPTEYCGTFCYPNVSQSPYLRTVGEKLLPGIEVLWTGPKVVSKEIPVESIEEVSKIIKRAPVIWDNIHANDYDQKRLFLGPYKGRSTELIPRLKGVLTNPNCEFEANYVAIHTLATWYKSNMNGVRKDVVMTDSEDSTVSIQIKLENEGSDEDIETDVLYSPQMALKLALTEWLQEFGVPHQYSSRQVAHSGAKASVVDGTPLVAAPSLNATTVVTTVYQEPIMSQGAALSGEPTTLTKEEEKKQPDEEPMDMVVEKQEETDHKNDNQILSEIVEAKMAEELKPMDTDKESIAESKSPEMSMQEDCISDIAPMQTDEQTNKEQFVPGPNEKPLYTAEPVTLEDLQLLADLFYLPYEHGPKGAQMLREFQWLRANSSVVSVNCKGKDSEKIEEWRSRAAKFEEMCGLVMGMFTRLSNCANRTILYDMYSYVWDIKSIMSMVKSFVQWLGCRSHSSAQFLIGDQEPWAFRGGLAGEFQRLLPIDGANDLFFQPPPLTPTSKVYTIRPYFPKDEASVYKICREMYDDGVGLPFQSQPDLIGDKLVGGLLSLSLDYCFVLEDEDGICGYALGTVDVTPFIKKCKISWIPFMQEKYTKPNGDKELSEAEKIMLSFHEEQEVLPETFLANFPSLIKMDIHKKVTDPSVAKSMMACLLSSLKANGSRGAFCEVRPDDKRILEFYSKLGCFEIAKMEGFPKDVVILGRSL

Row | SMILES | IC50 [nM]
1 | CC(=O)N1Cc2cnc(O[C@@H]3C[C@H](C)N(Cc4cc5nc(C)sc5cc4F)C3)nc2C1 [Example 1, 1-(2-(((3R,5S)-1-((6-fluoro-2-methylbenzo[d]thiazol-5-yl)methyl)-5-methylpyrrolidin-3-yl)oxy)-5,7-dihydro-6H-pyrrolo[3,4-d]pyrimidin-6-yl)ethan-1-one] | 0.465 ± 0.224
2 | CC(=O)N1Cc2ccc(O[C@@H]3C[C@H](C)N(Cc4cc5nc(C)sc5cc4F)C3)nc2C1 [Example 2, 1-(2-(((3R,5S)-1-((6-fluoro-2-methylbenzo[d]thiazol-5-yl)methyl)-5-methylpyrrolidin-3-yl)oxy)-5,7-dihydro-6H-pyrrolo[3,4-b]pyridin-6-yl)ethan-1-one] | 0.214 ± 0.037
3 | CC(=O)N1Cc2cnc(O[C@@H]3C[C@H](C)N(Cc4cc5nc(C)sc5cc4F)C3)cc2C1 [Example 3, 1-[6-[(3R,5S)-1-[(6-fluoro-2-methyl-1,3-benzothiazol-5-yl)methyl]-5-methyl-pyrrolidin-3-yl]oxy-1,3-dihydropyrrolo[3,4-c]pyridin-2-yl]ethanone] | 0.782 ± 0.087

Next, values leading:

Row | IC50 [nM] | SMILES
4 | 0.592 ± 0.068 | CC(=O)N1Cc2cc(O[C@@H]3C[C@H](C)N(Cc4cc5nc(C)sc5cc4F)C3)cnc2C1 [Example 4, 1-[3-[(3R,5S)-1-[(6-fluoro-2-methyl-1,3-benzothiazol-5-yl)methyl]-5-methyl-pyrrolidin-3-yl]oxy-5,7-dihydropyrrolo[3,4-b]pyridin-6-yl]ethanone]
5 | 0.495 ± 0.109 | CC(=O)N1Cc2cnc(O[C@@H]3C[C@H](C)N([C@@H](C)c4cc5nc(C)sc5cc4F)C3)nc2C1 [Example 5, 1-[2-[(3R,5S)-1-[(1S)-1-(6-fluoro-2-methyl-1,3-benzothiazol-5-yl)ethyl]-5-methyl-pyrrolidin-3-yl]oxy-5,7-dihydropyrrolo[3,4-d]pyrimidin-6-yl]ethanone]
6 | 0.385 ± 0.088 | CC(=O)N1Cc2ccc(O[C@@H]3C[C@H](C)N([C@@H](C)c4cc5nc(C)sc5cc4F)C3)nc2C1 [Example 6, 1-[2-[(3R,5S)-1-[(1S)-1-(6-fluoro-2-methyl-1,3-benzothiazol-5-yl)ethyl]-5-methyl-pyrrolidin-3-yl]oxy-5,7-dihydropyrrolo[3,4-b]pyridin-6-yl]ethanone]
